Test: Evaluation of triphenylamine derivative solubility in tetrahydrofuran
Format: physicochemical
Conditions: for Solubility: tetrahydrofuran, 25° C., {100/(100+W)}×100; for solubility in a solvent used for photosensitive layer formation (in words): as shown by Table 1
Protocol: Solubility of each of the triphenylamine derivatives (HT-1) to (HT-8), (HT-A), and (HT-B) was evaluated. More specifically, solubility of the obtained triphenylamine derivative was evaluated by calculating percentage solubility according to the following method. In the method, a small amount of tetrahydrofuran was added to 100 mg of the triphenylamine derivative at 25° C. Next, the mixture was shaken and left to stand, and the above steps were repeated in order to find an additive amount W (mg) of tetrahydrofuran for which solubility of the triphenylamine derivative was saturated. The additive amount W was used to calculate the percentage solubility according to equation (1) shown below. […] Solubility (%)={100/(100+W)}×100 Equation (1): […]

| Solubility | solubility in a solvent used for photosensitive layer formation (in words) | Structure (SMILES) |
| --- | --- | --- |
| 12% | – | C(/C=C/c1ccc(N(c2ccc(-c3ccc(N(c4ccc(/C=C/C=C/c5ccccc5)cc4)c4ccccc4-c4ccccc4)cc3)cc2)c2ccccc2-c2ccccc2)cc1)=C\c1ccccc1 [HT-8] |
| 7% | poor solubility | Cc1cccc(N(c2ccc(/C=C/C=C/c3ccccc3)cc2)c2ccc(-c3ccc(N(c4ccc(/C=C/C=C/c5ccccc5)cc4)c4cccc(C)c4)cc3)cc2)c1 [HT-B, reference compound] |
| 14% | – | Cc1ccccc1N(c1ccc(/C=C/C=C/c2ccccc2)cc1)c1ccc(-c2ccc(N(c3ccc(/C=C/C=C/c4ccccc4)cc3)c3ccccc3C)cc2)cc1 [HT-3] |
| 12% | – | CCc1cccc(C)c1N(c1ccc(/C=C/C=C/c2ccccc2)cc1)c1ccc(-c2ccc(N(c3ccc(/C=C/C=C/c4ccccc4)cc3)c3c(C)cccc3CC)cc2)cc1 [HT-1] |

The remaining lines, values behind:

| Structure (SMILES) | Solubility | solubility in a solvent used for photosensitive layer formation (in words) |
| --- | --- | --- |
| CCc1cccc(OC)c1N(c1ccc(/C=C/C=C/c2ccc(C)cc2)cc1)c1ccc(-c2ccc(N(c3ccc(/C=C/C=C/c4ccc(C)cc4)cc3)c3c(CC)cccc3OC)cc2)cc1 [HT-4] | 20% | – |
| C(/C=C/c1ccc(N(c2ccccc2)c2ccc(-c3ccc(N(c4ccccc4)c4ccc(/C=C/C=C/c5ccccc5)cc4)cc3)cc2)cc1)=C\c1ccccc1 [HT-A, reference compound] | ≦1% | poor solubility |
| Cc1ccc(N(c2ccc(/C=C/C=C/c3ccccc3)cc2)c2ccc(-c3ccc(N(c4ccc(/C=C/C=C/c5ccccc5)cc4)c4ccc(C)cc4C)cc3)cc2)c(C)c1 [HT-7] | 14% | – |
| CCc1cccc(C)c1N(c1ccc(/C=C/C=C/c2ccc(C)cc2)cc1)c1ccc(-c2ccc(N(c3ccc(/C=C/C=C/c4ccc(C)cc4)cc3)c3c(C)cccc3CC)cc2)cc1 [HT-2] | 12% | – |
| CCc1cccc(C)c1N(c1ccc(/C=C/C=C/c2cccc(OC)c2)cc1)c1ccc(-c2ccc(N(c3ccc(/C=C/C=C/c4cccc(OC)c4)cc3)c3c(CC)cccc3OC)cc2)cc1 [HT-5] | 18% | – |

— patent US9684253B2, “Triphenylamine derivative, electrophotographic photosensitive member, and image forming apparatus” (KYOCERA Document Solutions Inc., priority 2014, dated 2017)
